The test deals with P388 leukemia ip, CD2F1 mice, survival T/C. Kind of test: NCI In Vivo Anticancer Drug Screen. Data for tumor model P388 Leukemia (intraperitoneal) in CD2F1 (CDF1) mice. As to conditions: endpoint: median survival time, higher = longer survival. In a few lines: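 Mice carrying the transplanted tumor received test compound or vehicle. Survival was recorded in each group, and the value is the treated-group measurement divided by that of the vehicle-treated control group.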

Where [1] appears, read: dose: 50.0 mg/kg/injection, schedule: Q01DX009 (ip), vehicle: saline with Tween-80.
[2] abbreviates: dose: 100.0 mg/kg/injection, schedule: Q01DX009 (ip), vehicle: saline with Tween-80.
Setting [3] is: dose: 200.0 mg/kg/injection, schedule: Q01DX009 (ip), vehicle: saline with Tween-80.
[4] abbreviates: dose: 50.0 mg/kg/injection, schedule: Q01DX009 (ip), vehicle: saline.
[5] abbreviates: dose: 100.0 mg/kg/injection, schedule: Q01DX009 (ip), vehicle: saline.
[6] abbreviates: dose: 200.0 mg/kg/injection, schedule: Q01DX009 (ip), vehicle: saline.
[7] abbreviates: dose: 50.0 mg/kg/injection, schedule: Q01DX005 (ip), vehicle: saline with Tween-80.
Setting [8] is: dose: 100.0 mg/kg/injection, schedule: Q01DX005 (ip), vehicle: saline with Tween-80.
Where [9] appears, read: dose: 200.0 mg/kg/injection, schedule: Q01DX005 (ip), vehicle: saline with Tween-80.
Where [10] appears, read: dose: 50.0 mg/kg/injection, schedule: Q01DX005 (ip), vehicle: Klucel (hydroxypropylcellulose) (HPC).
Where [11] appears, read: dose: 100.0 mg/kg/injection, schedule: Q01DX005 (ip), vehicle: Klucel (hydroxypropylcellulose) (HPC).
[12] abbreviates: dose: 200.0 mg/kg/injection, schedule: Q01DX005 (ip), vehicle: Klucel (hydroxypropylcellulose) (HPC).
The mark [13] stands for this setting: dose: 60.0 mg/kg/injection, schedule: Q01DX005 (ip), vehicle: saline with Tween-80.
The mark [14] stands for this setting: dose: 120.0 mg/kg/injection, schedule: Q01DX005 (ip), vehicle: saline with Tween-80.
The mark [15] stands for this setting: dose: 240.0 mg/kg/injection, schedule: Q01DX005 (ip), vehicle: saline with Tween-80.

“And” between values parts separate entries of the source, which are not always exact repeats. Equal values may be shown once. Toxic doses and inconclusive results are not listed.

`CCCCCCCC/C=C\CCCCCCCC(=O)OCCN(CCOC(=O)CCCCCCC/C=C\CCCCCCCC)C(=O)c1ccccc1`: the T/C was 116 % of control under setting [1], 97 % of control under setting [2] and 111 % of control under setting [3].

As to `Cc1c(N)nc(C(CC(N)=O)NCC(N)C(N)=O)nc1C(=O)NC(C(=O)NC(C)C(O)CC(=O)NC(C(=O)NC(OC1OC(C)C(N)C(O)C1O)C(O)c1nc(-c2nc(C(=O)NCCCC(N)CC(=O)NCCCNCCCCN)cs2)cs1)C(C)O)C(OC1OC(CO)C(O)C(O)C1OC1OC(CO)C(O)C(OC(N)=O)C1O)c1cnc[nH]1` (stereo unspecified), the T/C was 106 % of control (dose: 0.5 mg/kg/injection, schedule: Q01DX009 (ip), vehicle: water); 113 % of control and 119 % of control (dose: 0.8 mg/kg/injection, schedule: Q01DX009 (ip), vehicle: water); 113 % of control (dose: 1.0 mg/kg/injection, schedule: Q01DX009 (ip), vehicle: water); 113 % of control and 97 % of control (dose: 1.3 mg/kg/injection, schedule: Q01DX009 (ip), vehicle: water); 113 % of control (dose: 2.0 mg/kg/injection, schedule: Q01DX009 (ip), vehicle: water); 111 % of control and 87 % of control (dose: 2.2 mg/kg/injection, schedule: Q01DX009 (ip), vehicle: water). In addition, the T/C (dose: 3.6 mg/kg/injection, schedule: Q01DX009 (ip), vehicle: water) is 92 % of control.

For the molecule `CC(C=NC1CCCCC1)c1ccccc1` (stereo unspecified), the T/C is, setting by setting: under setting [4], 96 % of control; under setting [5], 87 % of control; under setting [6], 102 % of control.

As for `CN1CCN(C2=C(Cl)C(=O)c3ccccc3C2=O)CC1`, the T/C (dose: 1.25 mg/kg/injection, schedule: Q01DX009 (ip), vehicle: saline) is 100 % of control; the T/C (dose: 2.5 mg/kg/injection, schedule: Q01DX009 (ip), vehicle: saline) was 103 % of control; the T/C (dose: 5.0 mg/kg/injection, schedule: Q01DX009 (ip), vehicle: saline) was 109 % of control.

With `COCC(=O)c1ccccc1-c1ccccc1`, the T/C is 100 % of control under setting [7], 103 % of control under setting [8] and 110 % of control under setting [9].

For the molecule `COc1cc(-c2ccc(N=Nc3cc(S(=O)(=O)O)c4ccccc4c3O)c(OC)c2)ccc1N=Nc1cc(S(=O)(=O)O)c2ccccc2c1O`, the T/C runs as follows: under setting [5], 99 % of control; under setting [6], 104 % of control; (dose: 400.0 mg/kg/injection, schedule: Q01DX009 (ip), vehicle: saline) 115 % of control.

As for `CCOC(=O)/C(C#N)=C(\CCC(C(=O)O)N1C(=O)c2ccccc2C1=O)OC` (stereo unspecified), the T/C was 102 % of control (dose: 100.0 mg/kg/injection, schedule: Q04DX002 (ip), vehicle: Klucel (hydroxypropylcellulose) (HPC)); 102 % of control (dose: 200.0 mg/kg/injection, schedule: Q04DX002 (ip), vehicle: Klucel (hydroxypropylcellulose) (HPC)); 110 % of control (dose: 400.0 mg/kg/injection, schedule: Q04DX002 (ip), vehicle: Klucel (hydroxypropylcellulose) (HPC)).

For `Cc1ccc([N+](=O)[O-])cc1NC(=O)Oc1cc(C)c(Br)c(C)c1`, the T/C reads like this: under setting [1], 106 % of control; under setting [2], 106 % of control; under setting [3], 112 % of control.

`c1ccc(-c2[nH]nc3nccnc23)cc1`: the T/C under setting [10] is 99 % of control, the T/C under setting [11] was 98 % of control and the T/C under setting [12] was 98 % of control.

Regarding `Cc1cc[n+](C2=C(Nc3cc(C)cc(C)c3)C(=O)c3ccccc3C2=O)cc1`, the T/C by setting is: under setting [7], 111 % of control; under setting [8], 119 % of control; under setting [9], 90 % of control.

On to `O=C1NC2(CCCC2)C(=O)N1CCCN(CCCl)CCCl`, for which the T/C by setting is: (dose: 1.5 mg/kg/injection, schedule: Q01DX005 (ip), vehicle: saline) 173 % of control; (dose: 3.0 mg/kg/injection, schedule: Q01DX005 (ip), vehicle: saline) 176 % of control and 185 % of control; (dose: 6.0 mg/kg/injection, schedule: Q01DX005 (ip), vehicle: saline) 179 % of control and 204 % of control; (dose: 12.0 mg/kg/injection, schedule: Q01DX005 (ip), vehicle: saline) 203 % of control and 288 % of control.

As for `O=C(Nc1ccc(Cl)cc1)Nc1nnc(COc2ccccc2)o1`, the T/C reads like this: (dose: 15.0 mg/kg/injection, schedule: Q01DX005 (ip), vehicle: saline with Tween-80) 90 % of control; (dose: 30.0 mg/kg/injection, schedule: Q01DX005 (ip), vehicle: saline with Tween-80) 88 % of control; under setting [13], 89 % of control and 90 % of control; under setting [14], 90 % of control; under setting [15], 87 % of control.

On to `CC1=CC(=N/Br)/C=CC/1=N/Br`, for which the T/C under setting [7] was 108 % of control, the T/C under setting [8] was 100 % of control and the T/C under setting [9] was 99 % of control.

As to `COCc1c(-c2ccccc2)nn(O)c1-c1ccccc1`, the T/C was 103 % of control (dose: 50.0 mg/kg/injection, schedule: Q01DX001 (ip), vehicle: saline with Tween-80); 96 % of control (dose: 100.0 mg/kg/injection, schedule: Q01DX001 (ip), vehicle: saline with Tween-80); 87 % of control (dose: 200.0 mg/kg/injection, schedule: Q01DX001 (ip), vehicle: saline with Tween-80).

In the case of `COC(=O)C(S)(NC(C)=O)C(C)C` (stereo unspecified), the T/C is, setting by setting: under setting [4], 102 % of control; under setting [5], 98 % of control; under setting [6], 104 % of control.

On to `Cn1c(=O)c2c(nc(Br)n2CC(=O)c2ccc([N+](=O)[O-])cc2)n(C)c1=O`, for which the T/C was 95 % of control (dose: 100.0 mg/kg/injection, schedule: Q04DX003 (ip), vehicle: saline); 96 % of control (dose: 200.0 mg/kg/injection, schedule: Q04DX003 (ip), vehicle: saline); 99 % of control (dose: 400.0 mg/kg/injection, schedule: Q04DX003 (ip), vehicle: saline).

Take `CN(C)c1nc(N)nc(N)n1`: the T/C was 100 % of control (dose: 6.25 mg/kg/injection, schedule: Q01DX009 (ip), vehicle: Klucel (hydroxypropylcellulose) (HPC)); 101 % of control and 115 % of control (dose: 12.5 mg/kg/injection, schedule: Q01DX009 (ip), vehicle: Klucel (hydroxypropylcellulose) (HPC)); 99 % of control and 106 % of control (dose: 25.0 mg/kg/injection, schedule: Q01DX009 (ip), vehicle: Klucel (hydroxypropylcellulose) (HPC)); 100 % of control and 107 % of control (dose: 50.0 mg/kg/injection, schedule: Q01DX009 (ip), vehicle: Klucel (hydroxypropylcellulose) (HPC)); 100 % of control (dose: 100.0 mg/kg/injection, schedule: Q01DX009 (ip), vehicle: Klucel (hydroxypropylcellulose) (HPC)); 105 % of control (dose: 200.0 mg/kg/injection, schedule: Q01DX009 (ip), vehicle: Klucel (hydroxypropylcellulose) (HPC)).

In the case of `O=C(c1ccccc1)C1CCCN(CCc2ccccc2)C1` (stereo unspecified), the T/C runs as follows: under setting [7], 108 % of control; under setting [8], 109 % of control.

Regarding `CC(C)c1cc(C(C)C)c(S(=O)(=O)ON)c(C(C)C)c1`, the T/C runs as follows: (dose: 100.0 mg/kg/injection, schedule: Q04DX002 (ip), vehicle: saline) 112 % of control; (dose: 200.0 mg/kg/injection, schedule: Q04DX002 (ip), vehicle: saline) 99 % of control.

As to `CCC(/C=C/c1ccccc1)=N\Nc1ccc(C)cc1`, the T/C is 107 % of control under setting [13], 117 % of control under setting [14] and 114 % of control under setting [15].

On to `CCOC(=O)N1N=C(c2ccccc2)OC2(N3CCCC3)CCC(C(C)(C)C)CC12` (stereo unspecified), for which the T/C by setting is: under setting [10], 89 % of control; under setting [11], 96 % of control; under setting [12], 96 % of control.

With `C=C1CCC2C(OC(=O)C2(O)COC(C)=O)C2C(=C)C(OC(C)=O)CC12` (stereo unspecified), the T/C reads like this: (dose: 9.38 mg/kg/injection, schedule: Q01DX005 (ip), vehicle: Klucel (hydroxypropylcellulose) (HPC)) 106 % of control; (dose: 18.75 mg/kg/injection, schedule: Q01DX005 (ip), vehicle: Klucel (hydroxypropylcellulose) (HPC)) 100 % of control; (dose: 37.5 mg/kg/injection, schedule: Q01DX005 (ip), vehicle: Klucel (hydroxypropylcellulose) (HPC)) 98 % of control; (dose: 75.0 mg/kg/injection, schedule: Q01DX005 (ip), vehicle: Klucel (hydroxypropylcellulose) (HPC)) 100 % of control; (dose: 150.0 mg/kg/injection, schedule: Q01DX005 (ip), vehicle: Klucel (hydroxypropylcellulose) (HPC)) 99 % of control.
